Numbers after ± are expanded uncertainties.
Assay: mn = molality of the nth substance listed, in mol/kg
Conditions: 100 kPa, Liquid, Pycnometric method

O=C([O-])[O-].[Li+].[Li+] [lithium carbonate] + O
Conditions	mass density [kg/m3]
283.15 K, m1 = 0.1933	1007.2 ± 4
298.15 K, m1 = 0.1738	1003.8 ± 4
303.15 K, m1 = 0.1676	1002.2 ± 4
313.15 K, m1 = 0.1558	998.3 ± 4
323.15 K, m1 = 0.1454	993.7 ± 4
333.15 K, m1 = 0.1352	988.5 ± 4
343.15 K, m1 = 0.1251	982.6 ± 4
353.15 K, m1 = 0.1149	976.2 ± 4
363.15 K, m1 = 0.106	969.4 ± 4
368.15 K, m1 = 0.1015	965.2 ± 4

Reference: the NIST ThermoML archive (doi:10.1016/j.jct.2018.03.027)
